Laboratory results from patent US10239869B2, “Sulfonamide compounds as voltage-gated sodium channel modulators” (LUPIN LIMITED, priority 2015, dated 2019).
Read-outs that look alike come from different tables or passages of the source.

Tests used:
Nav 1.7 = Nav 1.7 (Homo sapiens (Human), UniProt Q15858); assay: Inhibition of sodium channels, Red Membrane Potential Dye FLIPR assay, veratridine depolarization; assay type: cell-based; conditions: HEK-293 cells overexpressing the channel; read-out: Nav1.7 IC50
Chain of Nav 1.7 (Q15858 whole entry): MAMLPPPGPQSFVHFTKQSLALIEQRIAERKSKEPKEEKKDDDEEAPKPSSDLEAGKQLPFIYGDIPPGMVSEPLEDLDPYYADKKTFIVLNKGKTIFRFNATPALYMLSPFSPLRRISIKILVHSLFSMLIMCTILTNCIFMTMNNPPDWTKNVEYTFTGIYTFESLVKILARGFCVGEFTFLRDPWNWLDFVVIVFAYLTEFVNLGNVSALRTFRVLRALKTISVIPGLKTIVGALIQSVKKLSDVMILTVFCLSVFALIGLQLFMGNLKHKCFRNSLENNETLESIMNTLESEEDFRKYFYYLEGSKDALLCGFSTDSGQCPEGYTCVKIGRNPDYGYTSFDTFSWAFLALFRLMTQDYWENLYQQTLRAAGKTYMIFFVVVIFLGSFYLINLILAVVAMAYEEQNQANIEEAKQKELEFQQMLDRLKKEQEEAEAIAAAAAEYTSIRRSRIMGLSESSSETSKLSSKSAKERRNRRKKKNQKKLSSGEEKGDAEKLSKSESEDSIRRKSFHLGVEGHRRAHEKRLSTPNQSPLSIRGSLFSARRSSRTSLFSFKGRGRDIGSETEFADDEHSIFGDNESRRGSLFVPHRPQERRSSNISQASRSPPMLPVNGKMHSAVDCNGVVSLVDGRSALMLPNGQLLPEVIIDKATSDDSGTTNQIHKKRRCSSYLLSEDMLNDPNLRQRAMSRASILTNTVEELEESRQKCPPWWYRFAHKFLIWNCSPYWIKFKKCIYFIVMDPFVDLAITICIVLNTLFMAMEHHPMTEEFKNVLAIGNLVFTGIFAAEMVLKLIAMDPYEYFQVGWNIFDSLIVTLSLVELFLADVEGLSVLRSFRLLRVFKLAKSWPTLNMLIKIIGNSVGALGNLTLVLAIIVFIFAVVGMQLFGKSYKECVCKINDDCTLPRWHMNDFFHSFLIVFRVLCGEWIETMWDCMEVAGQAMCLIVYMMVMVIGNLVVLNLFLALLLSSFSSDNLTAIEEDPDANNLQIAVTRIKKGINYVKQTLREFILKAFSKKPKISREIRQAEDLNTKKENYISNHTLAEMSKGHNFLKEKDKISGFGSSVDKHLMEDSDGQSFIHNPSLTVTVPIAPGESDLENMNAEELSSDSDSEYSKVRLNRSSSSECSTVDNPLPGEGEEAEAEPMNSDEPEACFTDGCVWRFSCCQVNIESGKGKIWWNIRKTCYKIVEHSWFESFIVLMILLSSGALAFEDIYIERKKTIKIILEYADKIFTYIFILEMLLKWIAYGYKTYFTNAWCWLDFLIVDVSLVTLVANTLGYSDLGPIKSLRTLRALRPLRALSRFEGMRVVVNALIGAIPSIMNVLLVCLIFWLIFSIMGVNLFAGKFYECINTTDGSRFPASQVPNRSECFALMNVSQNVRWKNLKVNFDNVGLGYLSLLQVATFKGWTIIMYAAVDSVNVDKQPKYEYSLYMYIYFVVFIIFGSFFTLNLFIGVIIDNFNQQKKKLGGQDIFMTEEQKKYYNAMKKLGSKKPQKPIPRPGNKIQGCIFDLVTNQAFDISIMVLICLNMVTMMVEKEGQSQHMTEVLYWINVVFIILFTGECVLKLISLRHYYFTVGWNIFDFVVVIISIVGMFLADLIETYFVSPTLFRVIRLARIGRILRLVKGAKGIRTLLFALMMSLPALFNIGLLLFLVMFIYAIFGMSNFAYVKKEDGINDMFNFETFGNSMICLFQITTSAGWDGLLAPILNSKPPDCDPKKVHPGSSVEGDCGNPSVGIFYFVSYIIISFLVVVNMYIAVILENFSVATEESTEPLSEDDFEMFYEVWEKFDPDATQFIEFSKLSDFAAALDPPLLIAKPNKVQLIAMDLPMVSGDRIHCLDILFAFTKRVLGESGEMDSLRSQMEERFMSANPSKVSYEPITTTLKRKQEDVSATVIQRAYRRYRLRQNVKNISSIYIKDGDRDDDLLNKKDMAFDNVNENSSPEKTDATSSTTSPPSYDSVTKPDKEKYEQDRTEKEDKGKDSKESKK

Nav 1.5 = Nav 1.5 (Homo sapiens (Human), UniProt Q14524); assay: as above; assay type: cell-based; conditions: HEK-293 cells overexpressing the channel; for inhibition at 10 µM: HEK-293 cells overexpressing Nav 1.5
Chain of Nav 1.5 (Q14524 whole entry): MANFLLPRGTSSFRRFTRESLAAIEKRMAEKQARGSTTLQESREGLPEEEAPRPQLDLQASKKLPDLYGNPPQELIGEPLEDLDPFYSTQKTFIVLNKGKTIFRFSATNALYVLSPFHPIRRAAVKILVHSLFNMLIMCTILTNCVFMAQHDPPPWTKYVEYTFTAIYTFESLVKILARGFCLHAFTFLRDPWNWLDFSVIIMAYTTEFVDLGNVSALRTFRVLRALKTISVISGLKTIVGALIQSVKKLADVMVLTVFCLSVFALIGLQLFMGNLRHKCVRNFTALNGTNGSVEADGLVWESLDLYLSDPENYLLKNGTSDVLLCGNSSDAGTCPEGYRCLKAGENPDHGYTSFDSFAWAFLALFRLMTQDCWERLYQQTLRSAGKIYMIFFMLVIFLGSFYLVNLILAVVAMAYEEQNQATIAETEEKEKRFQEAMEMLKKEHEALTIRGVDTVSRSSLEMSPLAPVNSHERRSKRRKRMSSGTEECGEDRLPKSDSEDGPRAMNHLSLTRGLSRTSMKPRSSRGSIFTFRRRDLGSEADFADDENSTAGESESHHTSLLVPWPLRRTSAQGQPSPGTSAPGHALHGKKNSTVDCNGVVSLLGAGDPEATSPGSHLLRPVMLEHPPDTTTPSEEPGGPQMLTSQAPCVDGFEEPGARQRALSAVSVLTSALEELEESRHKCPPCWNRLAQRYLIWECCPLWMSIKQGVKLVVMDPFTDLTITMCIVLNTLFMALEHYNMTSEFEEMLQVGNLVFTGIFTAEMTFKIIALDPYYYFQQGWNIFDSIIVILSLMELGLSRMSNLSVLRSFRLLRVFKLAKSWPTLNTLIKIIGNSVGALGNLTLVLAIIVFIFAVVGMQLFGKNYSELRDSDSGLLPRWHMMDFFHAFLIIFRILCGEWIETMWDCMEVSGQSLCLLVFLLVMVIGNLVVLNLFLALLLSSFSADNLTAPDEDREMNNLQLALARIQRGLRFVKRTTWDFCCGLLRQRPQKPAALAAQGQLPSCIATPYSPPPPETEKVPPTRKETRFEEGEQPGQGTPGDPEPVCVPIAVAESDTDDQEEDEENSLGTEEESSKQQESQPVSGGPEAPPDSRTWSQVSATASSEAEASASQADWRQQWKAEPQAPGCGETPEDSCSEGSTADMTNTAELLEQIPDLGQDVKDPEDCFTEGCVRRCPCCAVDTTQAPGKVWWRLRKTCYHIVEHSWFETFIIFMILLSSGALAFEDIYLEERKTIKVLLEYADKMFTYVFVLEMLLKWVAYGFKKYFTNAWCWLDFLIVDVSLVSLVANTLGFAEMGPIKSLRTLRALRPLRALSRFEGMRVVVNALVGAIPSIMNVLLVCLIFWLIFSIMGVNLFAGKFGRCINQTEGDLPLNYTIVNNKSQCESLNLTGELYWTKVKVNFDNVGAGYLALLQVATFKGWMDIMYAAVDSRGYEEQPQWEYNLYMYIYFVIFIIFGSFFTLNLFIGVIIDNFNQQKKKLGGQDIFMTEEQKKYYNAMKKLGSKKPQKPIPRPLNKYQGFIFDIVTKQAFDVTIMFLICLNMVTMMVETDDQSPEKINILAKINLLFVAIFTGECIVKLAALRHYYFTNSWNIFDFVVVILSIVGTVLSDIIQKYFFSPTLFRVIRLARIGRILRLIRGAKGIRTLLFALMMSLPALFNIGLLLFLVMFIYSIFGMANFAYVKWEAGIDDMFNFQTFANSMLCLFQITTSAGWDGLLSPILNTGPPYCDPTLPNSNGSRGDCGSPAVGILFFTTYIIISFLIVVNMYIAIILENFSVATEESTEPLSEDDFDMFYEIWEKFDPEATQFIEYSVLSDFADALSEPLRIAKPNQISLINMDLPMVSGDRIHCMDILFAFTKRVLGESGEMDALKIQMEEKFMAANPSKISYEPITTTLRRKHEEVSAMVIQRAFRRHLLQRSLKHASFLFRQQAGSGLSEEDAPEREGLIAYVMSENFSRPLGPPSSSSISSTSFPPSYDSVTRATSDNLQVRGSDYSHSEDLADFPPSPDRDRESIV

[1] = read-out: Nav1.5 IC50 (bound given in μM)

| SMILES | IC50 (Nav 1.7) | inhibition at 10 µM (Nav 1.5) | IC50 (Nav 1.5; read-out: Nav1.5 IC50) | IC50 (Nav 1.5; [1]) |
| --- | --- | --- | --- | --- |
| O=S(=O)(Nc1ncccn1)c1ccc2c(c1)OCC[C@@H]2c1ccc(C(F)(F)F)cc1-c1nccs1 (racemic) [Example 93, (R/S)—N-(pyrimidin-2-yl)-4-(2-(thiazol-2-yl)-4-(trifluoromethyl)phenyl)chroman-7-sulfonamide] | 4 nM | 56% | – | – |
| O=S(=O)(Nc1ccncn1)c1ccc2c(c1)OCC[C@@H]2c1ccc(C(F)(F)F)cc1-c1nccs1 (racemic) [Example 94, (R/S)—N-(pyrimidin-4-yl)-4-(2-(thiazol-2-yl)-4-(trifluoromethyl)phenyl)chroman-7-sulfonamide] | 3 nM | 51% | – | – |
| O=S(=O)(Nc1cccnn1)c1ccc2c(c1)OCC[C@@H]2c1ccc(C(F)(F)F)cc1-c1nccs1 (racemic) [Example 95, (R/S)—N-(pyridazin-3-yl)-4-(2-(thiazol-2-yl)-4-(trifluoromethyl)phenyl)chroman-7-sulfonamide] | 11 nM | 74% | – | – |
| O=S(=O)(Nc1cccc(F)n1)c1ccc2c(c1)OCC[C@@H]2c1ccc(C(F)(F)F)cc1-c1nccs1 (racemic) [Example 96, (R/S)—N-(6-fluoropyridin-2-yl)-4-(2-(thiazol-2-yl)-4-(trifluoromethyl)phenyl)chroman-7-sulfonamide] | 8 nM | 70% | – | – |
| CCOc1ccc(-c2cc(C(F)(F)F)ccc2[C@H]2CCOc3cc(S(=O)(=O)Nc4ncccn4)ccc32)cn1 (racemic) [Example 103, (R/S)-4-(2-(6-ethoxypyridin-3-yl)-4-(trifluoromethyl)phenyl)-N-(pyrimidin-2-yl)chroman-7-sulfonamide] | 10 nM | – | 0.932 µM | – |
| O=S(=O)(Nc1ncccn1)c1ccc2c(c1)OCC[C@@H]2c1ccc(C(F)(F)F)cc1Cl (racemic) [Example 104, (S/R)-4-(2-Chloro-4-(trifluoromethyl)phenyl)-N-(pyrimidin-2-yl)chroman-7-sulfonamide] | 184 nM | – | – | > 10 µM |
| O=S(=O)(Nc1ncc(F)cn1)c1ccc2c(c1)OCC[C@@H]2c1ccc(C(F)(F)F)cc1Cl (racemic) [Example 105, (S/R)-4-(2-Chloro-4-(trifluoromethyl)phenyl)-N-(5-fluoropyrimidin-2-yl)chroman-7-sulfonamide] | 1510 nM | – | – | > 10 µM |
| O=S(=O)(Nc1ccncn1)c1ccc2c(c1)OCC[C@@H]2c1ccc(C(F)(F)F)cc1Cl (racemic) [Example 106, (S/R)-4-(2-Chloro-4-(trifluoromethyl)phenyl)-N-(pyrimidin-4-yl)chroman-7-sulfonamide] | 147 nM | – | – | > 10 µM |
| O=S(=O)(Nc1cccnn1)c1ccc2c(c1)OCC[C@@H]2c1ccc(C(F)(F)F)cc1Cl (racemic) [Example 107, (S/R)-4-(2-Chloro-4-(trifluoromethyl)phenyl)-N-(pyridazin-3-yl)chroman-7-sulfonamide] | 229 nM | – | – | > 10 µM |
| O=S(=O)(Nc1cccc(F)n1)c1ccc2c(c1)OCC[C@@H]2c1ccc(C(F)(F)F)cc1Cl (racemic) [Example 108, (S/R)-4-(2-chloro-4-(trifluoromethyl)phenyl)-N-(6-fluoropyridin-2-yl)chroman-7-sulfonamide] | 57 nM | – | 2.18 µM | – |
| O=C1CCCN1c1cc(C(F)(F)F)ccc1[C@H]1CCOc2cc(S(=O)(=O)Nc3ncccn3)ccc21 (racemic) [Example 115, (R/S)-4-(2-(2-oxopyrrolidin-1-yl)-4-(trifluoromethyl)phenyl)-N-(pyrimidin-2-yl)chroman-7-sulfonamide] | 41 nM | – | – | > 10 µM |
| O=C1CCCN1c1cc(C(F)(F)F)ccc1[C@H]1CCOc2cc(S(=O)(=O)Nc3ccncn3)ccc21 (racemic) [Example 116, (R/S)-4-(2-(2-oxopyrrolidin-1-yl)-4-(trifluoromethyl)phenyl)-N-(pyrimidin-4-yl)chroman-7-sulfonamide] | 1960 nM | – | – | > 10 µM |
| O=C1CCCN1c1cc(C(F)(F)F)ccc1[C@H]1CCOc2cc(S(=O)(=O)Nc3cccnn3)ccc21 (racemic) [Example 117, (R/S)-4-(2-(2-oxopyrrolidin-1-yl)-4-(trifluoromethyl)phenyl)-N-(pyridazin-3-yl)chromane-7-sulfonamide] | 106 nM | – | – | > 10 µM |
| O=S(=O)(Nc1cccnn1)c1ccc2c(c1)OCC[C@@H]2c1ccc(C(F)(F)F)cc1N1CCOCC1 (racemic) [Example 122, (R/S)-4-(2-morpholino-4-(trifluoromethyl)phenyl)-N-(pyridazin-3-yl)chroman-7-sulfonamide] | 38 nM | 54% | – | – |
| COCCOc1cc(C(F)(F)F)ccc1[C@H]1CCOc2cc(S(=O)(=O)Nc3ncc(F)cn3)ccc21 (racemic) [Example 126, (R/S)—N-(5-fluoropyrimidin-2-yl)-4-(2-(2-methoxyethoxy)-4-(trifluoromethyl)phenyl)chroman-7-sulfonamide] | 140 nM | – | – | > 10 µM |
| COCCOc1cc(C(F)(F)F)ccc1[C@H]1CCOc2cc(S(=O)(=O)Nc3ccncn3)ccc21 (racemic) [Example 127, (R/S)-4-(2-(2-methoxyethoxy)-4-(trifluoromethyl)phenyl)-N-(pyrimidin-4-yl)chroman-7-sulfonamide] | 4 nM | 37% | – | – |
| COCCOc1cc(C(F)(F)F)ccc1[C@H]1CCOc2cc(S(=O)(=O)Nc3cccnn3)ccc21 (racemic) [Example 128, (R/S)-4-(2-(2-methoxyethoxy)-4-(trifluoromethyl)phenyl)-N-(pyridazin-3-yl)chroman-7-sulfonamide] | 145 nM | 55% | – | – |
| COCCOc1cc(C(F)(F)F)ccc1[C@H]1CCOc2cc(S(=O)(=O)Nc3cccc(F)n3)ccc21 (racemic) [Example 129, (R/S)—N-(6-fluoropyridin-2-yl)-4-(2-(2-methoxyethoxy)-4-(trifluoromethyl)phenyl)chroman-7-sulfonamide] | 16 nM | 62% | – | – |
| COCCCOc1cc(C(F)(F)F)ccc1[C@H]1CCOc2cc(S(=O)(=O)Nc3ncc(F)cn3)ccc21 (racemic) [Example 132, (R/S)—N-(5-fluoropyrimidin-2-yl)-4-(2-(3-methoxypropoxy)-4-(trifluoromethyl)phenyl)chroman-7-sulfonamide] | 163 nM | – | – | > 10 µM |
| COCCCOc1cc(C(F)(F)F)ccc1[C@H]1CCOc2cc(S(=O)(=O)Nc3cccnn3)ccc21 (racemic) [Example 133, (R/S)-4-(2-(3-methoxypropoxy)-4-(trifluoromethyl)phenyl)-N-(pyridazin-3-yl)chroman-7-sulfonamide] | 128 nM | 66% | – | – |
| COCCCOc1cc(C(F)(F)F)ccc1[C@H]1CCOc2cc(S(=O)(=O)Nc3cccc(F)n3)ccc21 (racemic) [Example 134, (R/S)—N-(6-fluoropyridin-2-yl)-4-(2-(3-methoxypropoxy)-4-(trifluoromethyl)phenyl)chroman-7-sulfonamide] | 31 nM | – | 1.34 µM | – |
| COCCc1cc(C(F)(F)F)ccc1[C@H]1CCOc2cc(S(=O)(=O)Nc3ncccn3)ccc21 (racemic) [Example 135, (R/S)-4-(2-(2-methoxyethyl)-4-(trifluoromethyl)phenyl)-N-(pyrimidin-2-yl)chroman-7-sulfonamide] | 708 nM | – | – | > 10 µM |
| COCCc1cc(C(F)(F)F)ccc1[C@H]1CCOc2cc(S(=O)(=O)Nc3ncc(F)cn3)ccc21 (racemic) [Example 136, (R/S)—N-(5-fluoropyrimidin-2-yl)-4-(2-(2-methoxyethyl)-4-(trifluoromethyl)phenyl)chroman-7-sulfonamide] | 655 nM | 33% | – | – |
| COCCc1cc(C(F)(F)F)ccc1[C@H]1CCOc2cc(S(=O)(=O)Nc3cccc(F)n3)ccc21 (racemic) [Example 137, (R/S)—N-(6-fluoropyridin-2-yl)-4-(2-(2-methoxyethyl)-4-(trifluoromethyl)phenyl)chroman-7-sulfonamide] | 12 nM | – | 3.64 µM | – |
| COCCc1cc(C(F)(F)F)ccc1[C@H]1CCOc2cc(S(=O)(=O)Nc3ccncn3)ccc21 (racemic) [Example 138, (R/S)-4-(2-(2-methoxyethyl)-4-(trifluoromethyl)phenyl)-N-(pyrimidin-4-yl)chroman-7-sulfonamide] | 588 nM | – | – | > 10 µM |
| COCCc1cc(C(F)(F)F)ccc1[C@H]1CCOc2cc(S(=O)(=O)Nc3cccnn3)ccc21 (racemic) [Example 139, (R/S)-4-(2-(2-methoxyethyl)-4-(trifluoromethyl)phenyl)-N-(pyridazin-3-yl)chroman-7-sulfonamide] | 33 nM | – | – | > 10 µM |
| COCCCc1cc(C(F)(F)F)ccc1[C@H]1CCOc2cc(S(=O)(=O)Nc3ncc(F)cn3)ccc21 (racemic) [Example 142, (R/S)—N-(5-fluoropyrimidin-2-yl)-4-(2-(3-methoxypropyl)-4-(trifluoromethyl)phenyl)chroman-7-sulfonamide] | 179 nM | – | – | > 10 µM |
| COCCCc1cc(C(F)(F)F)ccc1[C@H]1CCOc2cc(S(=O)(=O)Nc3ccncn3)ccc21 (racemic) [Example 143, (R/S)-4-(2-(3-methoxypropyl)-4-(trifluoromethyl)phenyl)-N-(pyrimidin-4-yl)chroman-7-sulfonamide] | 16 nM | – | 0.534 µM | – |
| COCCCc1cc(C(F)(F)F)ccc1[C@H]1CCOc2cc(S(=O)(=O)Nc3cccnn3)ccc21 (racemic) [Example 144, (R/S)-4-(2-(3-methoxypropyl)-4-(trifluoromethyl)phenyl)-N-(pyridazin-3-yl)chroman-7-sulfonamide] | 86 nM | – | 2.68 µM | – |
| O=C(O)c1ccc(-c2cc(C(F)(F)F)ccc2[C@@H]2CCOc3cc(S(=O)(=O)Nc4ncccn4)ccc32)cc1 [Example-187, (S&R)-2′-(7-(N-(pyrimidin-2-yl)sulfamoyl)chroman-4-yl)-5′-(trifluoromethyl)-[1,1′-biphenyl]-4-carboxylic acid] | 2600 nM | – | – | – |
